According to patent US20240124515A1, “ORALLY ACTIVE LEUKEMIA INHIBITORY FACTOR (LIF) ANTAGONISTS FOR THE TREATMENT OF CANCER” (Evestra, Inc., priority 2021, published 2024):
Where two headings read alike, the source gives them in different places. One block for each compound: values may come before it.

Experiments:
LIF/LIFR = details: background; cited from earlier work
[1] = rodent pharmacokinetic (PK) studies
xenograft and PDX models = details: background; cited from earlier work
other steroid receptors = test: Binding to other steroid receptors; details: Table 1
[2] = PK study, oral bioavailability in rats; type: in vivo, Sprague Dawley rats; details: for bioavailability: Sprague Dawley, rat, plasma, po
Excerpt: For example, the oral bioavailability can be determined by the formula (1):
F=100*(AUCpo*Div/AUCiv*Dpo) (1)
where: F is bioavailability; AUCpo is dose-corrected area under curve of non-intravenous oral drug; Div is the intravenous dose; AUCiv is the area under the curve intravenous; and Dpo is the oral dose.

MCF7/LIF cells = test: Effect on MCF7 cells with artificial LIF expression (FIG. 1); type: cell-based; details: artificial expression of LIF in MCF7 cells
Protocol: (§1) The artificial expression of LIF in MCF7 cells (MCF7/LIF) made those cells vulnerable to LIF inhibitors (FIG. 1) such as compound 5 (EC905) and compound 13 (EC915)
(§2) In order to identify the mechanism of action of EC914, we checked cytotoxicity of these compounds in various cells lines and derived IC50 values. Briefly, 5×10^3 cells were seeded in 96-well plates and incubated with compounds (0.0001-10 μmol/L) or dimethyl sulfoxide (DMSO; 0.02% v/v) for 24, 48, and 72 hours at 37° C. and cell viability was measured using a Fluoroscan plate reader (Nair et al. Estrogen receptor-β activation in combination with letrozole blocks the growth of breast cancer tumors resistant to letrozole therapy. Steroids. 2011 July; 76(8):792-6).

[3] = test system: triple negative breast cancer cells; test: Antiproliferative activity in TNBC cells; type: cell-based
Protocol: as §1, §2

HESE cells = test: Caspase-3/7 apoptosis assay (Caspase-Glo); type: cell-based; details: Caspase-3/7 activity
Protocol: Caspase-3/7 activity in HESE cells was measured using Caspase-Glo assay kit (Promega), as described before (Bhaskaran et al, 2013). Briefly, cells were homogenized in homogenization buffer (25 mmol/L HEPES, pH 7.5, 5 mmol/L MgCl2, and 1 mmol/L EGTA), protease inhibitors, and the homogenate was centrifuged at 13,000 rpm at 4° C. for 15 minutes. To 10 μL of the supernatant containing protein was added to an equal volume of the assay reagent and incubated at room temperature for 2 hours. The luminescence was measured using a luminometer.

[4] = test system: MDR1, CD44, Sox2, ALDH1, and CD133; test: Western blot of CSC marker expression in PCa (FIG. 7C); type: cell-based
Protocol: (§3) In this study, the cellular signaling disrupted upon EC 914 treatment was analyzed. […] Thus, cancer stemness enrichment upon DTX treatment might be abolished by LIF/LIFR signaling disruption through EC914 inhibitor.

pSTAT3 = test: Western blot of STAT3 phosphorylation (FIG. 2); type: cell-based
Protocol: It is believed that EC914 binds directly to LIFR and blocks LIF signaling. Binding of EC914 to LIFR was measured by microscale thermophoresis (MST). The binding kD was 174 nM (FIG. 3).
In brief, MDA-MB-231/BT549 cells were treated with compounds for 3 days at different concentrations (10, 100 nM) and cell lysates were separated by 8% SDS-PAGE and transferred to polyvinylidene difluoride membranes. Membranes were then incubated with primary antibodies including phosphorylated and/or total pSTAT3. After overnight incubation at 4° C., membranes were incubated with secondary antibodies. Immunoreactive bands were then visualized by the enhanced chemiluminescence (ECL) detection system (GE healthcare.

[5] = test system: 22Rv1 and cE2 mouse syngeneic cells; test: Prostate cancer tumor models in vivo (FIG. 9); details: 22Rv1 and cE2 subcutaneous tumors in athymic nude mice
Protocol: 22Rv1 and cE2 mouse syngeneic cells were subcutaneously implanted in athymic nude mice (0.75×10^6/mice). Two weeks after post-implantation, mice were randomized into four groups. Group 1 mice received saline, whereas group 2 and group 3 mice received EC 914 (every alternative day) or DTX (once in 3 days) alone. Finally, group 4 mice were administered with both EC 914 and DTX. […] Based on this rationale, it is believed that LIFR is overexpressed in response to DTX treatment and induces resistance, and enriches the CSC population in metastatic CRPC.

MDA-MB-231 xenograft = test: MDA-MB-231 tumor xenograft study; type: in vivo, athymic nude mice; details: TNBC mouse xenograft model, initial 3 doses of 10 mg/kg, oral, FIG. 5
Protocol: Uniform suspensions of human breast cancer MDA-MB-231 cells (2×10^6) in 100 μL (0.02 carboxymethyl cellulose in phosphate buffered saline) were injected subcutaneously into the right and left flanks of 4- to 5-week-old female athymic nude mice (Charles River Laboratories). After 10 days, when the tumor […] reaches 100 mm^3, the mice were randomly allocated to 3 groups of each containing 6 animals. Group 1 served as the untreated control, groups 2 received EC914 orally at 10 mg/kg daily for 3 doses. All drug was formulated in a vehicle containing 58.5% Labrasol ALF, 22.5% Labrafil M, 1944 CS, 9% Capryol 90 and 10% water q.s. Tumors were allowed to reach palpability before drug intervention. Tumor size was measured every 3 days using digital Vernier Calipers and tumor volume was calculated using the ellipsoid formula [D×(d2)]/2, where D is the large diameter of the tumor and d represents the small diameter. On day 19, the mice were euthanized, and tumors were harvested for protein and gene expression studies since the control tumors reached maximum allowable size as the IACUC regulations (See FIG. 5).

LIFR = biological target: T1, LIFR (Homo sapiens, UniProt P42702); test: Microscale thermophoresis (MST) binding to LIFR
T1 sequence (P42702 45-1097): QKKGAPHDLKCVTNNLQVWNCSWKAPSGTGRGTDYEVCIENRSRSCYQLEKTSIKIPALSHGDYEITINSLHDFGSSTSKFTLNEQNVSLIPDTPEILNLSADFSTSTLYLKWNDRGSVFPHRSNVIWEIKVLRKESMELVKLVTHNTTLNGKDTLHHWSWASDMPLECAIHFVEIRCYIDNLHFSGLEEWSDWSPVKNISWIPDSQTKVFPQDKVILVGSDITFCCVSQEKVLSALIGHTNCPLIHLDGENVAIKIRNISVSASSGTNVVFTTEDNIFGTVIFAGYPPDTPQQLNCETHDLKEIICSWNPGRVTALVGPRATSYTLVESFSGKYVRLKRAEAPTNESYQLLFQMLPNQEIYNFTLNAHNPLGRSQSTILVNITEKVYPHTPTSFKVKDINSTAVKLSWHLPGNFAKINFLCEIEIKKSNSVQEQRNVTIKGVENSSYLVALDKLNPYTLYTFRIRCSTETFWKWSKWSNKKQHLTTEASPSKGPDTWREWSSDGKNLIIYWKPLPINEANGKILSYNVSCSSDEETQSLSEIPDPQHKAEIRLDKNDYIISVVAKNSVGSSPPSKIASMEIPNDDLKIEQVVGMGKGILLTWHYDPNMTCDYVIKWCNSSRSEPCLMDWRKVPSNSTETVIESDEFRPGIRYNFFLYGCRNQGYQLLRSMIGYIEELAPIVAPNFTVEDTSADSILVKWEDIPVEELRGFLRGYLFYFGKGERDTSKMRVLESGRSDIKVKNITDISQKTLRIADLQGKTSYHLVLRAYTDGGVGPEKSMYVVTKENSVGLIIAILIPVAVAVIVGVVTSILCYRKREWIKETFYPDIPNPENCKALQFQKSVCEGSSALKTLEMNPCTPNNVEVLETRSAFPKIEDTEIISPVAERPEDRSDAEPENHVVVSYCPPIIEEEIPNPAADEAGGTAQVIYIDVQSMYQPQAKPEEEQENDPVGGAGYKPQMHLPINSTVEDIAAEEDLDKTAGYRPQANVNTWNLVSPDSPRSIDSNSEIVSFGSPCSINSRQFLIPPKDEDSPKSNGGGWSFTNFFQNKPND
Protocol: Binding of EC914 to LIFR was measured by microscale thermophoresis (MST).

[6] = test system: STAT1, STAT3, AKT, ERK, Myc, and tCyclinD1 proteins; test: Western blot of cellular signaling in PCa cells (FIG. 7A); type: cell-based; details: no change in total proteins
Protocol: as §3

[7] = test system: murine and human PCa cells; test: Viability and Incucyte Cytotox assay of PCa cells (FIG. 6); type: cell-based
Excerpt: FIG. 6A depicts a line graph showing significant decline in the viability of murine and human PCa cells upon treatment with EC914 and/or Docetaxel.

[8] = test system: NE-1.8 (neuro endocrine-like) prostate cancer cell line; test: Calcein AM fluorescent dye-based cell viability assay, NE-1.8 cells; details: 96 hours, 50 nM to 250 nm EC914
Protocol: In one test, NE-1.8 (neuro endocrine-like) prostate cancer cell line was treated with compound 12 (EC914).
After 96 hours, the cell viability was observed using Calcein AM fluorescent dye-based cell viability assay. More than 50-80% of cell growth inhibition was observed from 50 nM to 250 nm concentration of EC914 compared to vehicle control. Similar growth inhibition trend was observed upon treatment with LIF inhibitor on the C42B prostate cancer cell line at 48 hrs.

Compound: C#CC(F)(F)[C@]1(O)CC[C@H]2[C@@H]3CCC4=CC(=O)CCC4=C3[C@@H](c3ccc(C4CC4)cc3)C[C@@]21C [EC330]
LIF/LIFR mediated proliferation and tumor growth (LIF/LIFR): efficiently inhibited

Compound: C#CC(F)(F)[C@]1(O)CC[C@H]2[C@@H]3CCC4=CC(=O)CCC4=C3[C@@H](c3ccc(-c4c(C)cc(C)cc4C)cc3)C[C@@]21C [EC359, reference compound]
oral bioavailability [1]: 16%
efficacy in preclinical xenograft and PDX models (xenograft and PDX models): good efficacy
Binding to other steroid receptors (other steroid receptors): Low binding to PR
oral bioavailability ([2]; Table 1): 16%

Compound: C#CC(F)(F)[C@]1(O)CCC2C3CCC4=CC(=O)CCC4=C3[C@@H](c3cccc(-c4cccnc4)c3)C[C@@]21C (stereo partly shown) [EC905]
vulnerability of MCF7/LIF cells to LIF inhibitors (MCF7/LIF cells): vulnerable

Binding to other steroid receptors (other steroid receptors): No
Kd (LIFR; MST, FIG. 3, read-out: binding kD to LIFR): 174 nM
Kd (LIFR; Table 1, read-out: LIFR binding): 175 nM
bioavailability ([2]; PK studies in Sprague Dawley rats, FIG. 4): 87.9%
bioavailability ([2]; Table 1): 87.9%
Compound: C#CC(F)(F)[C@]1(O)CCC2C3CCC4=CC(=O)CCC4=C3[C@@H](c3cccc(C#N)c3C)C[C@@]21C (stereo partly shown) [EC914]
antiproliferative activity [3]: potent antiproliferative activity
percent of apoptosis induced (HESE cells): comparable to that of EC359
key CSC marker expression (MDR1, CD44, Sox2, ALDH1, CD133) [4]: specifically decreases
STAT3 phosphorylation (pSTAT3): reduced STAT3 phosphorylation
tumor growth [5]: inhibit tumor growth
tumor burden (MDA-MB-231 xenograft): reduced tumors burden
phosphorylation of STAT1 and STAT3 and of AKT, ERK, Myc, tCyclinD1 [6]: decreased
cytotoxicity of Docetaxel in PCa ([7]; 22Rv1 cells, Incucyte Cytotox assay, FIG. 6B): increases cytotoxicity of Docetaxel
viability of PCa cells ([7]; murine and human PCa cells, FIG. 6A): decreases viability
cell growth inhibition compared to vehicle control [8]: 50-80%

Compound: C#CC(F)(F)[C@]1(O)CCC2C3CCC4=CC(=O)CCC4=C3[C@@H](c3ccc(C#N)cc3C)C[C@@]21C (stereo partly shown) [EC915]
vulnerability of MCF7/LIF cells to LIF inhibitors (MCF7/LIF cells): vulnerable
